Results taken from PMC9481151, “Discovery of new symmetrical and asymmetrical nitrile-containing 1,4-dihydropyridine derivatives as dual kinases and P-glycoprotein inhibitors: synthesis, in vitro assays, and in silico studies” (Journal of Enzyme Inhibition and Medicinal Chemistry, 2022).
Where “and” joins values, the source holds several entries; their conditions need not be identical. Equal entries are not always repeated.

Key:
CCRF-CEM = assay: NCI single dose (10 µM) SRB screen; format: cell-based, human; conditions: leukaemia, 48 h
HL-60(TB) = assay: NCI single dose (10 µM) SRB screen; format: cell-based, human; conditions: leukaemia, 48 h
MOLT-4 = assay: NCI single dose (10 µM) SRB screen; format: cell-based, human; conditions: leukaemia, 48 h
RPMI-8226 = assay: NCI single dose (10 µM) SRB screen; format: cell-based, human; conditions: leukaemia, 48 h
SR = assay: NCI single dose (10 µM) SRB screen; format: cell-based, human; conditions: leukaemia, 48 h
A549/ATCC = assay: NCI single dose (10 µM) SRB screen; format: cell-based, human; conditions: non-small cell lung cancer, 48 h
NCI-H226 = assay: NCI single dose (10 µM) SRB screen; format: cell-based, human; conditions: non-small cell lung cancer, 48 h
NCI-H23 = assay: NCI single dose (10 µM) SRB screen; format: cell-based, human; conditions: non-small cell lung cancer, 48 h
NCI-H322M = assay: NCI single dose (10 µM) SRB screen; format: cell-based; conditions: non-small cell lung cancer, 48 h
NCI-H460 = assay: NCI single dose (10 µM) SRB screen; format: cell-based, human; conditions: non-small cell lung cancer, 48 h
NCI-H522 = assay: NCI single dose (10 µM) SRB screen; format: cell-based, human; conditions: non-small cell lung cancer, 48 h
COLO 205 = assay: NCI single dose (10 µM) SRB screen; format: cell-based, human; conditions: colon cancer, 48 h
HCT-116 = assay: NCI single dose (10 µM) SRB screen; format: cell-based, human; conditions: colon cancer, 48 h
HT29 = assay: NCI single dose (10 µM) SRB screen; format: cell-based, human; conditions: colon cancer, 48 h
KM12 = assay: NCI single dose (10 µM) SRB screen; format: cell-based, human; conditions: colon cancer, 48 h
SW-620 = assay: NCI single dose (10 µM) SRB screen; format: cell-based, human; conditions: colon cancer, 48 h
SF-268 = assay: NCI single dose (10 µM) SRB screen; format: cell-based, human; conditions: CNS cancer, 48 h
SF-295 = assay: NCI single dose (10 µM) SRB screen; format: cell-based, human; conditions: CNS cancer, 48 h
SF-539 = assay: NCI single dose (10 µM) SRB screen; format: cell-based, human; conditions: CNS cancer, 48 h
SNB-19 = assay: NCI single dose (10 µM) SRB screen; format: cell-based, human; conditions: CNS cancer, 48 h
SNB-75 = assay: NCI single dose (10 µM) SRB screen; format: cell-based, human; conditions: CNS cancer, 48 h
U251 = assay: NCI single dose (10 µM) SRB screen; format: cell-based, human; conditions: CNS cancer, 48 h
LOX IMVI = assay: NCI single dose (10 µM) SRB screen; format: cell-based, human; conditions: melanoma, 48 h
MALME-3M = assay: NCI single dose (10 µM) SRB screen; format: cell-based, human; conditions: melanoma, 48 h
M14 = assay: NCI single dose (10 µM) SRB screen; format: cell-based, human; conditions: melanoma, 48 h
MDA-MB-435 = assay: NCI single dose (10 µM) SRB screen; format: cell-based, human; conditions: melanoma, 48 h
SK-MEL-28 = assay: NCI single dose (10 µM) SRB screen; format: cell-based, human; conditions: melanoma, 48 h
SK-MEL-5 = assay: NCI single dose (10 µM) SRB screen; format: cell-based, human; conditions: melanoma, 48 h
UACC-257 = assay: NCI single dose (10 µM) SRB screen; format: cell-based, human; conditions: melanoma, 48 h
IGROV1 = assay: NCI single dose (10 µM) SRB screen; format: cell-based, human; conditions: ovarian cancer, 48 h
OVCAR-3 = assay: NCI single dose (10 µM) SRB screen; format: cell-based, human; conditions: ovarian cancer, 48 h
OVCAR-4 = assay: NCI single dose (10 µM) SRB screen; format: cell-based, human; conditions: ovarian cancer, 48 h
OVCAR-5 = assay: NCI single dose (10 µM) SRB screen; format: cell-based, human; conditions: ovarian cancer, 48 h
OVCAR-8 = assay: NCI single dose (10 µM) SRB screen; format: cell-based, human; conditions: ovarian cancer, 48 h
NCI/ADR-RES = assay: NCI single dose (10 µM) SRB screen; format: cell-based, human; conditions: ovarian cancer, 48 h
SK-OV-3 = assay: NCI single dose (10 µM) SRB screen; format: cell-based, human; conditions: ovarian cancer, 48 h
786-0 = assay: NCI single dose (10 µM) SRB screen; format: cell-based, human; conditions: renal cancer, 48 h
A498 = assay: NCI single dose (10 µM) SRB screen; format: cell-based, human; conditions: renal cancer, 48 h
ACHN = assay: NCI single dose (10 µM) SRB screen; format: cell-based, human; conditions: renal cancer, 48 h
CAKI-1 = assay: NCI single dose (10 µM) SRB screen; format: cell-based, human; conditions: renal cancer, 48 h
RXF 393 = assay: NCI single dose (10 µM) SRB screen; format: cell-based, human; conditions: renal cancer, 48 h
SN12C = assay: NCI single dose (10 µM) SRB screen; format: cell-based, human; conditions: renal cancer, 48 h
TK-10 = assay: NCI single dose (10 µM) SRB screen; format: cell-based, human; conditions: renal cancer, 48 h
PC-3 = assay: NCI single dose (10 µM) SRB screen; format: cell-based, human; conditions: prostate cancer, 48 h
DU-145 = assay: NCI single dose (10 µM) SRB screen; format: cell-based, human; conditions: prostate cancer, 48 h
MCF7 = assay: NCI single dose (10 µM) SRB screen; format: cell-based, human; conditions: breast cancer, 48 h
MDA-MB-468 = assay: NCI single dose (10 µM) SRB screen; format: cell-based, human; conditions: breast cancer, 48 h
NCI 60 cancer cell lines = assay: NCI single dose (10 µM) SRB screen, mean over panel; format: cell-based, human; conditions: mean over 60 cell lines, 48 h
Staphylococcus aureus = assay: Agar well diffusion method
Bacillus subtilis = assay: Agar well diffusion method
Escherichia coli = assay: Agar well diffusion method
Aspergillus flavus = assay: Agar well diffusion method

Structure (SMILES): COCCOC(=O)C1=C(C)NC(C)=C(C(=O)OCCOC)C1c1cccc(C#N)c1 [Compound 1f, Di(2-methoxyethyl) 4-(3-cyanophenyl)-2,6-dimethyl-1,4-dihydropyridine-3,5-dicarboxylate]
- GI% CCRF-CEM (CCRF-CEM): – (Only GI% ≥ 10 are shown)
- GI% HL-60(TB) (HL-60(TB)): 10%
- GI% MOLT-4 (MOLT-4): – (Only GI% ≥ 10 are shown)
- GI% RPMI-8226 (RPMI-8226): – (Only GI% ≥ 10 are shown)
- GI% SR (SR): – (Only GI% ≥ 10 are shown)
- GI% A549/ATCC (A549/ATCC): – (Only GI% ≥ 10 are shown)
- GI% NCI-H226 (NCI-H226): – (Only GI% ≥ 10 are shown)
- GI% NCI-H23 (NCI-H23): – (Only GI% ≥ 10 are shown)
- GI% NCI-H322M (NCI-H322M): – (Only GI% ≥ 10 are shown)
- GI% NCI-H460 (NCI-H460): – (Only GI% ≥ 10 are shown)
- GI% NCI-H522 (NCI-H522): – (Only GI% ≥ 10 are shown)
- GI% COLO 205 (COLO 205): – (Only GI% ≥ 10 are shown)
- GI% HCT-116 (HCT-116): – (Only GI% ≥ 10 are shown)
- GI% HT29 (HT29): – (Only GI% ≥ 10 are shown)
- GI% KM12 (KM12): – (Only GI% ≥ 10 are shown)
- GI% SW-620 (SW-620): – (Only GI% ≥ 10 are shown)
- GI% SF-268 (SF-268): – (Only GI% ≥ 10 are shown)
- GI% SF-295 (SF-295): – (Only GI% ≥ 10 are shown)
- GI% SF-539 (SF-539): – (Only GI% ≥ 10 are shown)
- GI% SNB-19 (SNB-19): – (Only GI% ≥ 10 are shown)
- GI% SNB-75 (SNB-75): 14%
- GI% U251 (U251): – (Only GI% ≥ 10 are shown)
- GI% LOX IMVI (LOX IMVI): – (Only GI% ≥ 10 are shown)
- GI% MALME-3M (MALME-3M): – (Only GI% ≥ 10 are shown)
- GI% M14 (M14): – (Only GI% ≥ 10 are shown)
- GI% MDA-MB-435 (MDA-MB-435): – (Only GI% ≥ 10 are shown)
- GI% SK-MEL-28 (SK-MEL-28): – (Only GI% ≥ 10 are shown)
- GI% SK-MEL-5 (SK-MEL-5): – (Only GI% ≥ 10 are shown)
- GI% UACC-257 (UACC-257): – (Only GI% ≥ 10 are shown)
- GI% IGROV1 (IGROV1): – (Only GI% ≥ 10 are shown)
- GI% OVCAR-3 (OVCAR-3): – (Only GI% ≥ 10 are shown)
- GI% OVCAR-4 (OVCAR-4): – (Only GI% ≥ 10 are shown)
- GI% OVCAR-5 (OVCAR-5): – (Only GI% ≥ 10 are shown)
- GI% OVCAR-8 (OVCAR-8): – (Only GI% ≥ 10 are shown)
- GI% NCI/ADR-RES (NCI/ADR-RES): – (Only GI% ≥ 10 are shown)
- GI% SK-OV-3 (SK-OV-3): – (Only GI% ≥ 10 are shown)
- GI% 786-0 (786-0): – (Only GI% ≥ 10 are shown)
- GI% A498 (A498): – (Only GI% ≥ 10 are shown)
- GI% ACHN (ACHN): – (Only GI% ≥ 10 are shown)
- GI% CAKI-1 (CAKI-1): – (Only GI% ≥ 10 are shown)
- GI% RXF 393 (RXF 393): – (Only GI% ≥ 10 are shown)
- GI% SN12C (SN12C): – (Only GI% ≥ 10 are shown)
- GI% TK-10 (TK-10): – (Only GI% ≥ 10 are shown)
- GI% PC-3 (PC-3): – (Only GI% ≥ 10 are shown)
- GI% DU-145 (DU-145): – (Only GI% ≥ 10 are shown)
- GI% MCF7 (MCF7): – (Only GI% ≥ 10 are shown)
- GI% MDA-MB-468 (MDA-MB-468): 13%
- Mean GI% (NCI 60 cancer cell lines): −1%
- zone of inhibition at 1000 µg/mL (Staphylococcus aureus; Staphylococcus aureus, 24 h, read-out: Diameter of inhibition zone, S. aureus): 19 mm
- % activity index, S. aureus (Staphylococcus aureus; relative to ciprofloxacin): 79% and 79.2%
- zone of inhibition at 1000 µg/mL (Bacillus subtilis; Bacillus subtilis, 24 h, read-out: Diameter of inhibition zone, B. subtilis): 16 mm
- % activity index, B. subtilis (Bacillus subtilis; relative to ciprofloxacin): 69.6%
- zone of inhibition at 1000 µg/mL (Escherichia coli; Escherichia coli, 24 h, read-out: Diameter of inhibition zone, E. coli): 13 mm
- % activity index, E. coli (Escherichia coli; relative to ciprofloxacin): 50%
- zone of inhibition at 1000 µg/mL (Aspergillus flavus; Aspergillus flavus, 24 h, read-out: Diameter of inhibition zone, A. flavus): 19 mm
- % activity index, A. flavus (Aspergillus flavus; relative to clotrimazole): 76%
